“Also recorded” adds a separate entry of the source.
How the values were obtained:
[1] = system: κ agonist U50,488-induced diuresis; conditions: antagonism of U50,488-induced diuresis; cited from earlier work
[2] = system: κ agonist U50,488-induced diuresis; test: Antagonism of U50,488-induced diuresis in rats; type: in vivo, male Sprague-Dawley rats; conditions: for antagonism of U50,488-induced diuresis (urine output), week 0: s.c., first 5 h after dosing, U50,488 10 mg/kg; for antagonism of U50,488-induced diuresis (urine output), week 1: single s.c. dose at week 0, no further dosing

Compound | duration of κ antagonist activity [1] | antagonism of U50,488-induced diuresis (urine output), week 0 [2] | antagonism of U50,488-induced diuresis (urine output), week 1 [2] | antagonism of the diuretic effects of U50,488 at individual doses ([2]; 10 and 30 mg/kg s.c., week 0, Dunnett's test vs U50,488) | duration of activity as antagonist of U50,488-induced diuresis ([2]; single s.c. dose)
Oc1ccc2c3c1O[C@H]1c4[nH]c5c(c4C[C@@]4(O)[C@@H](C2)N(CC2CC2)CC[C@]314)C[C@@]1(O)[C@H]2Cc3ccc(O)c4c3[C@@]1(CCN2CC1CC1)[C@H]5O4 [Compound 1, norBNI] | up to 3 weeks | – | – | – | –
CC(C)[C@@H](CN1CC[C@@](C)(c2cccc(O)c2)[C@@H](C)C1)NC(=O)[C@H]1Cc2ccc(O)cc2CN1 [Compound 3, (3R)-7-Hydroxy-N-[(1S)-1-{[(3R,4R)-4-(3-hydroxyphenyl)-3,4-dimethyl-1-piperidinyl]methyl}-2-methylpropyl)-1,2,3,4-tetrahydro-3-isoquinolinecarboxamide, reference compound] | – | dose-related antagonism | continued to show dose-related antagonism | – | –
CC(C)[C@@H](CN1CC[C@@](C)(c2cccc(O)c2)[C@@H](C)C1)NC(=O)[C@@H]1CCc2cc(O)ccc2C1 [Compound 7a, 6-Hydroxy-1,2,3,4-tetrahydro-naphthalene-2(+)-carboxylic acid-{1-[4-(3-hydroxyphenyl)-(3R,4R)-trans-dimethyl-piperidinylmethyl]-(2S)-methylpropyl}amide] | – | antagonized selective κ agonist U50,488-induced diuresis; also recorded: dose-related antagonism | did not show any κ antagonist activity after one week; also recorded: antagonism of U50,488 could no longer be detected | significant antagonism | less than 1 week
